These results are taken from patent publication US6906065B2, “4-Amino-5-cyano-2-anilino-pyrimidine derivatives and their use as inhibitors of cell-cycle kinases” (AstraZeneca AB, priority 2000, dated 2005).

This experiment deals with T1, CDK2/Cyclin E (Homo sapiens, UniProt P24941).
T1 construct: The open reading frames of CDK2 and Cyclin E were isolated by reverse transcriptase-PCR; made in house; host or cells: Sf21 (Spodoptera frugiperda) insect cells, baculovirus co-infection, vector pVL1393
Briefly: in vitro kinase assay (Scintillation Proximity Assay), incorporation of [γ-33-P]-ATP into GST-Rb. Type of experiment: biochemical. Conditions: CDK2/Cyclin E partially-purified enzyme, GST-Rb substrate, 0.2 μM ATP, 60 minutes at room temperature; read-out: CDK2 inhibitory activity IC50. As for the experimental part:
The compounds were tested in an in vitro kinase assay in 96 well format using Scintillation Proximity Assay (SPA—obtained from Amersham) for measuring incorporation of [γ-33-P]-Adenosine Triphosphate into a test substrate (GST-Retinoblastoma protein; GST-Rb). In each well was placed the compound to be tested (diluted in DMSO and water to correct concentrations) and in control wells either roscovitine as an inhibitor control or DMSO as a positive control. […]
The plates were sealed with Topseal-S plate sealers, left for two hours then spun at 2500 rpm, 1124×g., for 5 minutes. The plates were read on a Topcount for 30 seconds per well. […]
E.coli paste was resuspended in 10 ml/g of NETN buffer (50 mM Tris pH 7.5, 120 mM NaCl, 1 mM EDTA, 0.5% v/v NP-40, 1 mM PMSF, 1 ug/ml leupeptin, 1 ug/ml aprotinin and 1 ug/ml pepstatin) and sonicated for 2×45 seconds per 100 ml homogenate. […] The final product was analysed by Sodium Dodeca Sulfate (SDS) PAGE (Polyacrylamide gel) using 8-16% Tris-Glycine gels (Novex, San Diego, USA).
The open reading frames of CDK2 and Cyclin E were isolated by reverse transcriptase-PCR using HeLa cell and activated T cell mRNA as a template and cloned into the insect expression vector pVL1393 (obtained from Invitrogen 1995 catalogue number: V1392-20). […]

Turning to `N#Cc1cnc(Nc2ccc(S(=O)(=O)NC3CCC3)cc2)nc1N` [Example 21, 4-Amino-5-cyano-2-{4-[N-(cyclobutyl)sulphamoyl]anilino}pyrimidine], the IC50 was found to be 33 nM.

`CCCNS(=O)(=O)c1ccc(Nc2ncc(C#N)c(N)n2)cc1` [Example 23, 4-Amino-5-cyano-2-[4-(N-propylsulphamoyl)anilino]pyrimidine]: the IC50 amounted to 17 nM.
